This passage reports TGI and GI50 results from PubChem BioAssay (NCI).

“And” between values parts separate entries of the source, which are not always exact repeats. Identical values can stand only once.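 1) Cells in 96-well plates. 2) Compound, 48 h, 5 concentrations. 3) Linear interpolation between surrounding doses. 4) Unreached endpoint = highest concentration. GI50 marks 50% less growth. TGI: concentration producing complete growth inhibition.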

Test systems include BT-549 breast; HCT-15 colon; M14 melanoma; NCI-H460 lung; NCI-H522 lung; OVCAR-4 ovarian; SF-295 CNS; SR leukemia; TK-10 renal; UACC-257 melanoma.
Holding throughout (experiment): NCI anticancer screen, dose series, 48 h

Turning to `CCN(C)c1nc(N(C)CC)c2nc(N(C)CC)nc(N(C)CC)c2n1`, the TGI in the assay on BT-549 breast, in the assay on HCT-15 colon, in the assay on M14 melanoma, with NCI-H460 lung, with NCI-H522 lung and in the assay with OVCAR-4 ovarian was more than 100 µM throughout. Besides, the TGI in the assay on SF-295 CNS, with SR leukemia, with TK-10 renal and with UACC-257 melanoma was more than 100 µM each time.

Take `Cc1cccc(NC(=O)c2sc3nc4c(cc3c2N)C(=O)CCC4)c1`: the GI50 in the assay with BT-549 breast was 2.68 µM; in the assay on HCT-15 colon it was 0.156 µM; with M14 melanoma it was 0.179 µM; with NCI-H460 lung, 0.312 µM; with NCI-H522 lung, 0.124 µM; in the assay on OVCAR-4 ovarian, 0.706 µM. The GI50 was 0.194 µM in the assay on SF-295 CNS, 0.445 µM with SR leukemia and more than 100 µM in the assay with TK-10 renal. The TGI in the assay with BT-549 breast was more than 96.3 µM; in the assay on HCT-15 colon it was more than 100 µM; in the assay on M14 melanoma it was more than 34.6 µM; in the assay on NCI-H460 lung, more than 39.3 µM; with NCI-H522 lung, 1.68 µM; in the assay on OVCAR-4 ovarian it was 32.5 µM. Also, the TGI is more than 47.6 µM in the assay with SF-295 CNS, more than 100 µM in the assay on SR leukemia, more than 100 µM in the assay with TK-10 renal and more than 100 µM in the assay on UACC-257 melanoma.

Turning to `CC(=O)ON1CCCC(P(=O)(OCOC(=O)C(C)(C)C)OCOC(=O)C(C)(C)C)C1=O` (configuration not stated), the GI50 with BT-549 breast is 0.559 µM; with HCT-15 colon, 0.534 µM; with M14 melanoma it was 1.04 µM; in the assay with NCI-H460 lung, 0.959 µM; with NCI-H522 lung it was 0.506 µM; with OVCAR-4 ovarian it was 1.19 µM. Moreover, the GI50 in the assay on SF-295 CNS was 2.37 µM; in the assay with SR leukemia, 0.309 µM; with TK-10 renal it was 0.977 µM; in the assay with UACC-257 melanoma, 2.41 µM. For the same compound, the TGI in the assay on BT-549 breast turned out to be 5.1 µM; with HCT-15 colon, 6.71 µM; in the assay with M14 melanoma, 6.96 µM; in the assay with NCI-H460 lung, 4.71 µM; with NCI-H522 lung it was 5.63 µM; with OVCAR-4 ovarian, 13.5 µM. Also, the TGI stood at 29 µM in the assay with SF-295 CNS, 2.34 µM in the assay on SR leukemia, 6.89 µM in the assay with TK-10 renal and 19.5 µM with UACC-257 melanoma.

For `COc1cc(CNc2nc3cc(N)cc(N)c3nc2-c2ccccc2)cc(OC)c1`, the GI50 is 9.7 µM with BT-549 breast; 19.3 µM with HCT-15 colon; 10.1 µM with M14 melanoma; 10.5 µM in the assay with NCI-H460 lung; 2.88 µM in the assay with NCI-H522 lung; 0.014 µM with OVCAR-4 ovarian. Further, the GI50 with SF-295 CNS is 14.2 µM; in the assay with SR leukemia, 3.84 µM; in the assay with TK-10 renal, 24.6 µM. Moreover, the TGI was more than 100 µM with BT-549 breast; more than 100 µM in the assay with HCT-15 colon; 49.3 µM in the assay on M14 melanoma; more than 100 µM in the assay with NCI-H460 lung; 23 µM in the assay with NCI-H522 lung; 0.974 µM in the assay on OVCAR-4 ovarian. The TGI with SF-295 CNS is 35.1 µM; in the assay on SR leukemia, more than 100 µM; with TK-10 renal, 62.3 µM; in the assay on UACC-257 melanoma, more than 100 µM.

With `COC1N(C2CC(O)C(CO)O2)C(=O)NC(=O)C1(F)Br` (configuration not stated), the TGI was more than 100 µM in the assay with BT-549 breast; 50 µM and > 100 µM in the assay with HCT-15 colon; 50 µM and > 100 µM with M14 melanoma; 50 µM and > 100 µM with NCI-H460 lung; 50 µM and > 70 µM in the assay on NCI-H522 lung; more than 100 µM with OVCAR-4 ovarian. Also, the TGI in the assay on SF-295 CNS was 50 µM and > 100 µM; in the assay on SR leukemia, 50 µM and > 100 µM; with TK-10 renal, more than 100 µM; in the assay with UACC-257 melanoma, 50 µM and > 100 µM. The GI50 in the assay with HCT-15 colon was 26.3 µM; with M14 melanoma, 38.4 µM; in the assay on NCI-H460 lung it was 1.51 µM; in the assay on NCI-H522 lung, 22.4 µM; with OVCAR-4 ovarian, more than 59.1 µM; in the assay with SF-295 CNS, 21.9 µM. In addition, the GI50 in the assay with SR leukemia is 25.1 µM; with TK-10 renal it was more than 50 µM; in the assay with UACC-257 melanoma it was 42.8 µM.

For `O=C1/C(=C/c2ccc(Cl)c(Cl)c2)CN(C(=O)CCN2CCC(=NO)CC2)C/C1=C\c1ccc(Cl)c(Cl)c1`, the GI50 was 0.829 µM in the assay on BT-549 breast; 0.325 µM in the assay with HCT-15 colon; 0.782 µM with M14 melanoma; 0.933 µM with NCI-H460 lung; 0.369 µM with NCI-H522 lung; 0.678 µM in the assay on OVCAR-4 ovarian. Moreover, the GI50 with SF-295 CNS was 1.05 µM; with SR leukemia, 0.353 µM; in the assay on TK-10 renal, 1.61 µM; in the assay with UACC-257 melanoma it was 1.74 µM. The TGI with BT-549 breast came out at 1.84 µM; in the assay on HCT-15 colon, 1.16 µM; in the assay on M14 melanoma, 2.23 µM; with NCI-H460 lung it was 2.57 µM; in the assay with NCI-H522 lung, 1.59 µM; in the assay with OVCAR-4 ovarian, 1.96 µM. For the same compound, the TGI in the assay on SF-295 CNS was 2.59 µM; in the assay on SR leukemia, more than 100 µM; in the assay on TK-10 renal, 3.18 µM; in the assay on UACC-257 melanoma, 3.86 µM.

Consider `O=C(NCCNCCO)c1ccc2c(c1)oc1cc3ccccc3c(=O)n12`, for which the GI50 in the assay on BT-549 breast was 18.8 µM; in the assay on HCT-15 colon, 38.4 µM; in the assay on M14 melanoma it was more than 50 µM; in the assay on NCI-H460 lung, 25.4 µM; with NCI-H522 lung, 18.2 µM; in the assay on OVCAR-4 ovarian it was more than 50 µM. Moreover, the GI50 is more than 50 µM in the assay on SF-295 CNS, 24.8 µM with SR leukemia, 1.48 µM in the assay on TK-10 renal and 19.6 µM in the assay on UACC-257 melanoma. Further, the TGI in the assay with BT-549 breast, with HCT-15 colon, in the assay with M14 melanoma, in the assay with NCI-H460 lung, with NCI-H522 lung and with OVCAR-4 ovarian was more than 50 µM throughout. Moreover, the TGI is more than 50 µM with SF-295 CNS, more than 50 µM in the assay with SR leukemia, 19.6 µM in the assay on TK-10 renal and more than 50 µM with UACC-257 melanoma.

Turning to `CC1(C)OC[C@@H]([C@@]2(CO[Si](c3ccccc3)(c3ccccc3)C(C)(C)C)CC=CC(=O)O2)O1`, the GI50 is 4.46 µM in the assay on BT-549 breast; 5.86 µM in the assay on HCT-15 colon; 8.52 µM in the assay with M14 melanoma; 5.16 µM with NCI-H460 lung; 5.02 µM in the assay with NCI-H522 lung; 16.1 µM in the assay with OVCAR-4 ovarian. For the same compound, the GI50 is 5.43 µM with SF-295 CNS, 4.1 µM with SR leukemia, 11.7 µM in the assay on TK-10 renal and 3.3 µM with UACC-257 melanoma. The TGI was 19 µM with BT-549 breast; 58.6 µM in the assay on HCT-15 colon; 60.5 µM in the assay with M14 melanoma; more than 100 µM in the assay with NCI-H460 lung; more than 100 µM with NCI-H522 lung; more than 100 µM in the assay on OVCAR-4 ovarian. The TGI with SF-295 CNS stood at 25.9 µM; in the assay with SR leukemia, 16.6 µM; in the assay with TK-10 renal, 33 µM; in the assay on UACC-257 melanoma, 9.95 µM.
